According to patent US20230278972A1, “SUBSTITUTED HALOALKYL SULFONANILIDE HERBICIDES” (FMC Corporation, priority 2020, published 2023):

Tests used:
Assay type in all cases: in vivo
[1] = tested on: ragweed (common ragweed, Ambrosia artemisiifolia); experiment: Test A1 postemergence, ragweed; settings: for Plant response rating, Ragweed: Postemergence; for Ragweed plant response rating: postemergence
Procedure, shortened: (§1)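 Herbicidal response was scored on plants treated either preemergence, by directed spray onto soil of a loam–sand blend after sowing, or postemergence on potted plants at the one- to two-leaf stage, 2–10 cm high. Test chemicals were carried in a non-phytotoxic solvent mix with surfactant.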

[2] = tested on: ducksalad (Heteranthera limosa); experiment: Test B1 flooded paddy test, ducksalad; settings: 250 g ai/ha, Flood, applied to paddy water, 2-leaf stage, visually evaluated after 10 to 14 days
Excerpt: A dash (-) response means no test result.

[3] = tested on: ragweed (common ragweed, Ambrosia artemisiifolia); experiment: Test A1 preemergence, ragweed
Procedure, shortened: (§2)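 Pre: seeds in loam/sand blend, directed soil spray. Post: potted plants, same soil, 2–10 cm, 1–2 leaf stage. Chemicals in non-phytotoxic solvent + surfactant for both.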

[4] = tested on: Pigweed, Palmer (palmer amaranth, palmer pigweed, Amaranthus palmeri); experiment: Test A1 preemergence, Pigweed, Palmer
Procedure, shortened: as §2

[5] = tested on: Pigweed, Palmer (palmer amaranth, palmer pigweed, Amaranthus palmeri); experiment: Test A1 postemergence, Pigweed, Palmer; settings: for Plant response rating, Pigweed, Palmer: Postemergence; for Pigweed, Palmer plant response rating: postemergence
Procedure, shortened: as §1

corn (Zea mays) = experiment: Test A1 preemergence, corn
Procedure, shortened: as §1

[6] = tested on: blackgrass (Alopecurus myosuroides); experiment: Test A1 preemergence, blackgrass
Procedure, shortened: as §2

[7] = tested on: goosegrass (Eleusine indica); experiment: Test A1 preemergence, goosegrass
Procedure, shortened: as §2

[8] = tested on: galium (catchweed bedstraw, Galium aparine); experiment: Test A1 postemergence, galium; settings: for Plant response rating, Galium: Postemergence; for Galium plant response rating: postemergence
Procedure, shortened: as §1

[9] = 31 g ai/ha, 0 to 100 scale (0 no effect, 100 complete control), 10 days
[10] = 31 g ai/ha, 0 to 100 scale (0 no effect, 100 complete control)
[11] = 125 g ai/ha, 0 to 100 scale, 0 no effect, 100 complete control

Row | SMILES | Plant response rating, Ragweed [1, 9] | Plant response rating, Ragweed ([1]; 125 g ai/ha, 0 to 100 scale) | Plant response rating, Ducksalad (0 to 100 scale, 0 is no effect, 100 is complete control) [2] | Plant response rating, Ragweed [3, 10] | Plant response rating, Ragweed [3, 11] | Plant response rating, Pigweed, Palmer [4, 10] | Plant response rating, Pigweed, Palmer [4, 11] | Plant response rating, Pigweed, Palmer [5, 9] | Plant response rating, Pigweed, Palmer ([5]; 125 g ai/ha, 0 to 100 scale) | Plant response rating, Corn (corn (Zea mays); [10]) | Plant response rating, Corn (corn (Zea mays); [11]) | Plant response rating, Blackgrass [6, 10] | Plant response rating, Blackgrass [6, 11] | Plant response rating, Goosegrass [7, 10] | Plant response rating, Goosegrass [7, 11] | Plant response rating, Galium [8, 9] | Plant response rating, Galium ([8]; 125 g ai/ha, 0 to 100 scale) | Ragweed plant response rating [1, 10] | Pigweed, Palmer plant response rating [5, 10] | Galium plant response rating [8, 10]
1 | Cc1c(NS(=O)(=O)C(F)(F)F)cc(C(=O)N2CCC(F)(F)CC2)c(C)c1C [Compound 357] | 80 | 80 | 60 | 0 | 80 | 40 | 100 | 0 | 50 | 10 | 90 | 0 | 10 | 80 | 100 | 90 | 100 |  |  | 
2 | Cc1c(NS(=O)(=O)C(F)(F)F)cc(C(=O)N2CCC(F)CC2)c(C)c1C [Compound 358] | 80 | 80 | 0 | 40 | 80 | 90 | 90 | 0 | 40 | 0 | 50 | 0 | 10 | 30 | 100 | 70 | 100 |  |  | 
3 | Cc1c(C(=O)N2CCC(Cl)CC2)cc(N(COC(=O)C(C)(C)C)S(=O)(=O)C(F)(F)F)c(C)c1C [Compound 359] | 30 | 70 | 25 | 0 | 80 | 0 | 20 | 0 | 20 | 0 | 0 | 0 | 0 | 0 | 90 | 50 | 80 |  |  | 
4 | Cc1c(C(=O)N2CCC(F)(F)CC2)cc(N(COC(=O)C(C)(C)C)S(=O)(=O)C(F)(F)F)c(C)c1C [Compound 360] | 70 | 90 | 65 | 60 | 80 | 0 | 40 | 20 | 40 | 0 | 0 | 0 | 0 | 0 | 90 | 50 | 100 |  |  | 
5 | Cc1cc(C)c(N(COC(=O)C(C)(C)C)S(=O)(=O)C(F)(F)F)cc1C(=O)N1CCOCC1 [Compound 362] | 70 | 80 | 50 | 0 | 50 | 10 | 80 | 10 | 30 | 0 | 30 | 10 | 50 | 90 | 100 | 60 | 80 |  |  | 
6 | CCOC(=O)N(c1cc(C(=O)N2CCOCC2)c(C)cc1C)S(=O)(=O)C(F)(F)F [Compound 363] | 60 | 70 | 70 | 20 | 80 | 90 | 100 | 0 | 10 | 0 | 60 | 50 | 90 | 100 | 100 | 60 | 90 |  |  | 
7 | Cc1cc(C)c(N(COC(=O)C(C)(C)C)S(=O)(=O)C(F)(F)F)cc1C(=O)N1CCC(c2ccccc2)CC1 [Compound 364] | 0 | 0 | 0 | 0 | 0 | 0 | 0 | 0 | 0 | 0 | 0 | 0 | 0 | 0 | 0 | 0 | 30 |  |  | 
8 | CCOC(=O)N(c1cc(C(=O)N2CCC(c3ccccc3)CC2)c(C)cc1C)S(=O)(=O)C(F)(F)F [Compound 365] | 0 | 30 | 25 | 0 | 20 | 30 | 30 | 0 | 0 | 0 | 0 | 0 | 0 | 10 | 90 | 40 | 80 |  |  | 
9 | Cc1c(NS(=O)(=O)C(F)(F)F)cc(C(=O)N2CCC(C)CC2)c(C)c1C [Compound 366] |  | 80 | 65 | 30 | 70 | 100 | 100 |  | 20 | 0 | 10 | 0 | 50 | 10 | 80 |  | 100 | 40 | 10 | 50
10 | COC1CCN(C(=O)c2cc(NS(=O)(=O)C(F)(F)F)c(C)c(C)c2C)CC1 [Compound 367] |  | 70 | 80 | 20 | 90 | 80 | 100 |  | 40 | 10 | 90 | 0 | 0 | 60 | 80 |  | 100 | 50 | 40 | 50
